# Measured values reported in PubChem BioAssay (NCI).
#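 In this assay, cells in 96-well plates receive the compound at five concentrations for 48 hours. Endpoints are linearly interpolated between the surrounding concentrations. The concentration for full growth arrest is given as TGI.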
# Tests used:
# Test in all cases: DTP human tumour cell line panel, 48 h
# RPMI-8226 leukemia = test system: RPMI-8226 leukemia
# NCI-H226 lung = test system: NCI-H226 lung
# NCI/ADR-RES ovarian = test system: NCI/ADR-RES ovarian
# HCT-116 colon = test system: HCT-116 colon
# MDA-MB-231 breast = test system: MDA-MB-231 breast
# CAKI-1 renal = test system: CAKI-1 renal
# MALME-3M melanoma = test system: MALME-3M melanoma
# KM12 colon = test system: KM12 colon
# EKVX NSCLC = test system: EKVX NSCLC
# U251 CNS = test system: U251 CNS
# HOP-62 NSCLC = test system: HOP-62 NSCLC
# T-47D breast = test system: T-47D breast
# OVCAR-8 ovarian = test system: OVCAR-8 ovarian
# MDA-MB-435 = test system: MDA-MB-435
# SK-OV-3 ovarian = test system: SK-OV-3 ovarian
# SNB-19 CNS = test system: SNB-19 CNS
# ACHN renal = test system: ACHN renal
# SF-295 CNS = test system: SF-295 CNS
# A549 NSCLC = test system: A549 NSCLC
# HT29 colon = test system: HT29 colon
# UACC-257 melanoma = test system: UACC-257 melanoma
# OVCAR-3 ovarian = test system: OVCAR-3 ovarian
# SF-268 CNS = test system: SF-268 CNS
# HOP-92 NSCLC = test system: HOP-92 NSCLC
# SR leukemia = test system: SR leukemia
# PC-3 prostate = test system: PC-3 prostate
# COLO 205 colon = test system: COLO 205 colon
# MOLT-4 leukemia = test system: MOLT-4 leukemia
# DU-145 prostate = test system: DU-145 prostate
# M14 melanoma = test system: M14 melanoma
# UACC-62 melanoma = test system: UACC-62 melanoma
# TK-10 renal = test system: TK-10 renal
# CCRF-CEM leukemia = test system: CCRF-CEM leukemia
# HL-60(TB) leukemia = test system: HL-60(TB) leukemia
# MDA-N = test system: MDA-N
# SW-620 colon = test system: SW-620 colon
# NCI-H460 lung = test system: NCI-H460 lung
# SN12C renal = test system: SN12C renal
# NCI-H23 lung = test system: NCI-H23 lung
# OVCAR-5 ovarian = test system: OVCAR-5 ovarian
# K-562 leukemia = test system: K-562 leukemia
# HCT-15 colon = test system: HCT-15 colon
# SK-MEL-5 melanoma = test system: SK-MEL-5 melanoma
# MCF7 breast = test system: MCF7 breast
# HS 578T breast = test system: HS 578T breast
# LOX IMVI melanoma = test system: LOX IMVI melanoma
# SNB-75 CNS = test system: SNB-75 CNS
# RXF 393 renal = test system: RXF 393 renal
# UO-31 renal = test system: UO-31 renal
# SK-MEL-28 melanoma = test system: SK-MEL-28 melanoma
# SF-539 CNS = test system: SF-539 CNS
# A498 renal = test system: A498 renal
# SK-MEL-2 melanoma = test system: SK-MEL-2 melanoma
# OVCAR-4 ovarian = test system: OVCAR-4 ovarian
# HCC-2998 colon = test system: HCC-2998 colon
# 786-0 renal = test system: 786-0 renal
# IGROV1 ovarian = test system: IGROV1 ovarian
# NCI-H522 lung = test system: NCI-H522 lung
# BT-549 breast = test system: BT-549 breast
smiles,measurement,setting,value
CC1=C(C)Cc2c(O)ccc(O)c2C1,TGI,RPMI-8226 leukemia,27.2 µM
same,TGI,NCI-H226 lung,42.1 µM
same,TGI,NCI/ADR-RES ovarian,> 100 µM
same,TGI,HCT-116 colon,29.5 µM
same,TGI,MDA-MB-231 breast,44.1 µM
same,TGI,CAKI-1 renal,34.1 µM
same,TGI,MALME-3M melanoma,31.6 µM
same,TGI,KM12 colon,> 100 µM
same,TGI,EKVX NSCLC,29.5 µM
same,TGI,U251 CNS,34.2 µM
same,TGI,HOP-62 NSCLC,50.1 µM
same,TGI,T-47D breast,63.4 µM
same,TGI,OVCAR-8 ovarian,32.1 µM
same,TGI,MDA-MB-435,30.5 µM
same,TGI,SK-OV-3 ovarian,> 100 µM
same,TGI,SNB-19 CNS,> 100 µM
same,TGI,ACHN renal,31.2 µM
same,TGI,SF-295 CNS,> 100 µM
same,TGI,A549 NSCLC,41.9 µM
same,TGI,HT29 colon,30.5 µM
same,TGI,UACC-257 melanoma,32.2 µM
same,TGI,OVCAR-3 ovarian,43.2 µM
same,TGI,SF-268 CNS,31.8 µM
same,TGI,HOP-92 NSCLC,36.4 µM
same,TGI,SR leukemia,38.8 µM
same,TGI,PC-3 prostate,32.1 µM
same,TGI,COLO 205 colon,34.7 µM
same,TGI,MOLT-4 leukemia,97.2 µM
same,TGI,DU-145 prostate,39.7 µM
same,TGI,M14 melanoma,30 µM
same,TGI,UACC-62 melanoma,30.1 µM
same,TGI,TK-10 renal,36.9 µM
same,TGI,CCRF-CEM leukemia,16.2 µM
same,TGI,HL-60(TB) leukemia,23.5 µM
same,TGI,MDA-N,30.7 µM
same,TGI,SW-620 colon,37.6 µM
same,TGI,NCI-H460 lung,> 100 µM
same,TGI,SN12C renal,45.8 µM
same,TGI,NCI-H23 lung,> 100 µM
same,TGI,OVCAR-5 ovarian,38.6 µM
same,TGI,K-562 leukemia,49.8 µM
same,TGI,HCT-15 colon,33.1 µM
same,TGI,SK-MEL-5 melanoma,27.7 µM
same,TGI,MCF7 breast,51.3 µM
same,TGI,HS 578T breast,33.6 µM
same,TGI,LOX IMVI melanoma,46.7 µM
same,TGI,SNB-75 CNS,31.3 µM
same,TGI,RXF 393 renal,30 µM
same,TGI,UO-31 renal,30.6 µM
same,TGI,SK-MEL-28 melanoma,25 µM
same,TGI,SF-539 CNS,35.1 µM
same,TGI,A498 renal,> 100 µM
CCOC(=O)c1ccc(N=c2sc3ccccc3nc2Nc2ccc(C(=O)OCC)cc2)cc1,TGI,RPMI-8226 leukemia,> 100 µM
same,TGI,NCI-H226 lung,> 100 µM
same,TGI,NCI/ADR-RES ovarian,> 100 µM
same,TGI,HCT-116 colon,> 100 µM
same,TGI,MDA-MB-231 breast,> 100 µM
same,TGI,CAKI-1 renal,> 100 µM
same,TGI,MALME-3M melanoma,> 100 µM
same,TGI,KM12 colon,> 100 µM
same,TGI,EKVX NSCLC,> 100 µM
same,TGI,U251 CNS,> 100 µM
same,TGI,HOP-62 NSCLC,> 100 µM
same,TGI,T-47D breast,> 100 µM
same,TGI,OVCAR-8 ovarian,> 100 µM
same,TGI,MDA-MB-435,> 100 µM
same,TGI,SK-OV-3 ovarian,> 100 µM
same,TGI,SNB-19 CNS,> 100 µM
same,TGI,ACHN renal,> 100 µM
same,TGI,SF-295 CNS,> 100 µM
same,TGI,A549 NSCLC,> 100 µM
same,TGI,HT29 colon,> 100 µM
same,TGI,UACC-257 melanoma,> 100 µM
same,TGI,SK-MEL-2 melanoma,> 100 µM
same,TGI,SF-268 CNS,> 100 µM
same,TGI,HOP-92 NSCLC,> 100 µM
same,TGI,SR leukemia,> 100 µM
same,TGI,PC-3 prostate,> 100 µM
same,TGI,COLO 205 colon,> 100 µM
same,TGI,MOLT-4 leukemia,> 100 µM
same,TGI,OVCAR-4 ovarian,> 100 µM
same,TGI,DU-145 prostate,> 100 µM
same,TGI,UACC-62 melanoma,> 100 µM
same,TGI,HCC-2998 colon,> 100 µM
same,TGI,TK-10 renal,> 100 µM
same,TGI,CCRF-CEM leukemia,> 100 µM
same,TGI,HL-60(TB) leukemia,> 100 µM
same,TGI,MDA-N,> 100 µM
same,TGI,786-0 renal,64.8 µM
same,TGI,SW-620 colon,> 100 µM
same,TGI,NCI-H460 lung,> 100 µM
same,TGI,SN12C renal,> 100 µM
same,TGI,NCI-H23 lung,> 100 µM
same,TGI,OVCAR-5 ovarian,> 100 µM
same,TGI,K-562 leukemia,> 100 µM
same,TGI,HCT-15 colon,> 100 µM
same,TGI,SK-MEL-5 melanoma,> 100 µM
same,TGI,IGROV1 ovarian,> 100 µM
same,TGI,HS 578T breast,> 100 µM
same,TGI,NCI-H522 lung,77.6 µM
same,TGI,LOX IMVI melanoma,> 100 µM
same,TGI,SNB-75 CNS,> 100 µM
same,TGI,RXF 393 renal,> 100 µM
same,TGI,UO-31 renal,> 100 µM
same,TGI,SK-MEL-28 melanoma,> 100 µM
same,TGI,SF-539 CNS,> 100 µM
same,TGI,A498 renal,> 100 µM
Oc1ccc(-c2nc3ccc(Cl)cc3s2)cc1,TGI,RPMI-8226 leukemia,47.3 µM
same,TGI,BT-549 breast,33.3 µM
same,TGI,NCI-H226 lung,41.6 µM
same,TGI,NCI/ADR-RES ovarian,57.1 µM
same,TGI,HCT-116 colon,29.5 µM
same,TGI,MDA-MB-231 breast,45.5 µM
same,TGI,CAKI-1 renal,36.5 µM
same,TGI,MALME-3M melanoma,36 µM
same,TGI,KM12 colon,34.2 µM
same,TGI,EKVX NSCLC,31 µM
same,TGI,U251 CNS,46.9 µM
same,TGI,OVCAR-8 ovarian,39 µM
same,TGI,MDA-MB-435,35.6 µM
same,TGI,SK-OV-3 ovarian,36.4 µM
same,TGI,SNB-19 CNS,40.4 µM
same,TGI,ACHN renal,> 100 µM
same,TGI,SF-295 CNS,34.1 µM
same,TGI,A549 NSCLC,45.2 µM
same,TGI,HT29 colon,34.6 µM
same,TGI,UACC-257 melanoma,34.4 µM
same,TGI,OVCAR-3 ovarian,40.7 µM
same,TGI,SK-MEL-2 melanoma,34 µM
same,TGI,SF-268 CNS,33.8 µM
same,TGI,SR leukemia,51.1 µM
same,TGI,PC-3 prostate,37.5 µM
same,TGI,COLO 205 colon,32.3 µM
same,TGI,MOLT-4 leukemia,> 100 µM
same,TGI,DU-145 prostate,31.1 µM
same,TGI,M14 melanoma,> 100 µM
same,TGI,UACC-62 melanoma,31.2 µM
same,TGI,TK-10 renal,34.7 µM
same,TGI,CCRF-CEM leukemia,24.4 µM
same,TGI,HL-60(TB) leukemia,57.7 µM
same,TGI,MDA-N,37.6 µM
same,TGI,SW-620 colon,39.3 µM
same,TGI,NCI-H460 lung,36.1 µM
same,TGI,SN12C renal,35.7 µM
same,TGI,NCI-H23 lung,36.5 µM
same,TGI,OVCAR-5 ovarian,33 µM
same,TGI,K-562 leukemia,> 100 µM
same,TGI,HCT-15 colon,31.1 µM
same,TGI,SK-MEL-5 melanoma,35.7 µM
same,TGI,IGROV1 ovarian,32.4 µM
same,TGI,MCF7 breast,22.6 µM
same,TGI,NCI-H522 lung,31.7 µM
same,TGI,LOX IMVI melanoma,45.9 µM
same,TGI,RXF 393 renal,44 µM
same,TGI,UO-31 renal,27.8 µM
same,TGI,SF-539 CNS,34.7 µM
same,TGI,A498 renal,35.2 µM
O=C(Nc1nc(C23CC4CC(CC(C4)C2)C3)cs1)c1cc2ccccc2oc1=O,TGI,RPMI-8226 leukemia,> 100 µM
same,TGI,BT-549 breast,> 100 µM
same,TGI,NCI-H226 lung,> 100 µM
same,TGI,NCI/ADR-RES ovarian,> 100 µM
same,TGI,HCT-116 colon,> 100 µM
same,TGI,MDA-MB-231 breast,> 100 µM
same,TGI,CAKI-1 renal,> 100 µM
same,TGI,MALME-3M melanoma,> 100 µM
same,TGI,KM12 colon,> 100 µM
same,TGI,EKVX NSCLC,> 100 µM
same,TGI,U251 CNS,> 100 µM
same,TGI,HOP-62 NSCLC,> 100 µM
same,TGI,OVCAR-8 ovarian,> 100 µM
same,TGI,MDA-MB-435,> 100 µM
same,TGI,SNB-19 CNS,> 100 µM
same,TGI,ACHN renal,> 100 µM
same,TGI,SF-295 CNS,> 100 µM
same,TGI,A549 NSCLC,> 100 µM
same,TGI,HT29 colon,> 100 µM
same,TGI,UACC-257 melanoma,> 100 µM
same,TGI,OVCAR-3 ovarian,> 100 µM
same,TGI,SF-268 CNS,> 100 µM
same,TGI,HOP-92 NSCLC,> 100 µM
same,TGI,SR leukemia,> 100 µM
same,TGI,PC-3 prostate,> 100 µM
same,TGI,COLO 205 colon,> 100 µM
same,TGI,MOLT-4 leukemia,> 100 µM
same,TGI,OVCAR-4 ovarian,> 100 µM
same,TGI,DU-145 prostate,> 100 µM
same,TGI,HCC-2998 colon,> 100 µM
same,TGI,TK-10 renal,> 100 µM
same,TGI,CCRF-CEM leukemia,> 100 µM
same,TGI,HL-60(TB) leukemia,> 100 µM
same,TGI,MDA-N,> 100 µM
same,TGI,786-0 renal,> 100 µM
same,TGI,SW-620 colon,> 100 µM
same,TGI,NCI-H460 lung,> 100 µM
same,TGI,SN12C renal,> 100 µM
same,TGI,NCI-H23 lung,> 100 µM
same,TGI,OVCAR-5 ovarian,> 100 µM
same,TGI,K-562 leukemia,> 100 µM
same,TGI,HCT-15 colon,> 100 µM
same,TGI,SK-MEL-5 melanoma,> 100 µM
same,TGI,IGROV1 ovarian,> 100 µM
same,TGI,MCF7 breast,> 100 µM
same,TGI,HS 578T breast,> 100 µM
same,TGI,NCI-H522 lung,> 100 µM
same,TGI,LOX IMVI melanoma,> 100 µM
same,TGI,SNB-75 CNS,> 100 µM
same,TGI,RXF 393 renal,> 100 µM
same,TGI,UO-31 renal,> 100 µM
same,TGI,SK-MEL-28 melanoma,> 100 µM
same,TGI,SF-539 CNS,> 100 µM
same,TGI,A498 renal,> 100 µM
